The source of these data is patent US10703757B2, “Compounds and methods for CDK8 modulation and indications therefor” (Plexxikon Inc., priority 2016, dated 2020).

pIC50: −log10 of the molar value.

The test system of assay [1] is CDK8 (TCF/LEF luciferase reporter in HCT116 cells). Nature of the assay: Cell based TCF/LEF reporter assay (HCT116+TCF/LEF luciferase). The settings on record: Homo sapiens, HCT-116, 24 h. Summed up: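 HCT116 cells stably carrying a TCF/LEF-luciferase reporter (endogenous mutant β-catenin), seeded overnight, then exposed to serial compound dilutions for 24 h at 37 °C. Luminescence normalized to CellTiter-Fluor viability signal. % inhibition relative to DMSO and 10 uM CCT251545 controls, with IC50 from nonlinear regression.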

The test system of assay [2] is CDK8 (phosphorylation of STAT1 at serine 727 in A549 cells). The assay can be described thus: Cell based Phospho-STAT1 assay (IFNγ-stimulated A549 cells, AlphaLISA). The following applies: Homo sapiens, A549, A549 cells, phospho-STAT1 after IFNγ stimulation. The procedure, abridged:
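A549 cells given serial compound dilutions for 1 h at 37 °C, then stimulated with IFNγ at 10 ng/mL final for 30 min. Lysate STAT1 Ser727 phosphorylation measured by AlphaLISA; % inhibition vs stimulated/unstimulated DMSO controls, IC50 by nonlinear regression.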
(In general: In Alpha technology, singlet oxygen from a donor bead excites a nearby acceptor bead.)

As for `CC1(COc2ccc(-c3cnn4ccnc(C5=CCC(C#N)CC5)c34)cc2)COC1` (stereo not drawn) [Compound P-0055, 4-(3-(4-((3-methyloxetan-3-yl)methoxy)phenyl)pyrazolo[1,5-a]pyrazin-4-yl)cyclohex-3-ene-1-carbonitrile], the pIC50 in assay [1] and in assay [2] was 7.00 to 10.00 each time.
On to `Cc1nc2cc(-c3cnn4ccnc(C5=CCC(C#N)CC5)c34)ccc2[nH]1` (stereo not drawn) [Compound P-0056, 4-(3-(2-methyl-1H-benzo[d]imidazol-5-yl)pyrazolo[1,5-a]pyrazin-4-yl)cyclohex-3-ene-1-carbonitrile], for which the pIC50 in assay [1] and in assay [2] was 7.00 to 10.00 in each case.
Take `N#CC1CC=C(c2nccn3ncc(-c4ccc(OCCOC5CCS(=O)(=O)CC5)cc4)c23)CC1` (stereo not drawn) [Compound P-0057, 4-(3-(4-(2-((1,1-dioxidotetrahydro-2H-thiopyran-4-yl)oxy)ethoxy)phenyl)pyrazolo[1,5-a]pyrazin-4-yl)cyclohex-3-ene-1-carbonitrile]: the negative logarithm of the IC50 (pIC50) in assay [1] and in assay [2] was 7.00 to 10.00 each time.
With `N#CC1CCC(c2nccn3ncc(-c4ccc(OCCOC5CCOCC5)cc4)c23)CC1` (stereo not drawn) [Compound P-0058, (1s,4s)-4-(3-(4-(2-((tetrahydro-2H-pyran-4-yl)oxy)ethoxy)phenyl)pyrazolo[1,5-a]pyrazin-4-yl)cyclohexane-1-carbonitrile], the pIC50 in assay [1] and in assay [2] was 7.00 to 10.00 each time.
As for `Cn1cc(-c2ccc(-c3cnn4ccnc(C5CCC(C#N)CC5)c34)cc2)cn1` (stereo not drawn) [Compound P-0059, (1s,4s)-4-(3-(4-(1-methyl-1H-pyrazol-4-yl)phenyl)pyrazolo[1,5-a]pyrazin-4-yl)cyclohexane-1-carbonitrile], the negative-log IC50 (pIC50) in assay [1] and in assay [2] was 7.00 to 10.00 each time.
On to `CCCS(=O)(=O)Nc1ccc2cc(-c3cnn4ccnc(C5=CCC(C#N)CC5)c34)ccc2c1` (stereo not drawn) [Compound P-0060, N-(6-(4-(4-cyanocyclohex-1-en-1-yl)pyrazolo[1,5-a]pyrazin-3-yl)naphthalen-2-yl)propane-1-sulfonamide], for which the negative logarithm of the IC50 (pIC50) in assay [1] and in assay [2] was 7.00 to 10.00 throughout.
Turning to `CCCS(=O)(=O)Nc1ccc2cc(-c3cnn4ccnc(C5CCC(C#N)CC5)c34)ccc2c1` (stereo not drawn) [Compound P-0061, N-(6-(4-((1s,4s)-4-cyanocyclohexyl)pyrazolo[1,5-a]pyrazin-3-yl)naphthalen-2-yl)propane-1-sulfonamide], the negative logarithm of the IC50 (pIC50) in assay [1] and in assay [2] was 7.00 to 10.00 in each case.
`CC(C)(O)Cn1ncc2cc(-c3cnn4ccnc(C5CCC(C#N)CC5)c34)ccc21` (stereo not drawn) [Compound P-0062, (1s,4s)-4-(3-(1-(2-hydroxy-2-methylpropyl)-1H-indazol-5-yl)pyrazolo[1,5-a]pyrazin-4-yl)cyclohexane-1-carbonitrile]: the pIC50 in assay [1] and in assay [2] was 7.00 to 10.00 in each case.
For `N#CC1CC=C(c2nccn3ncc(-c4ccc5c(cnn5CC(F)(F)F)c4)c23)CC1` (stereo not drawn) [Compound P-0063, 4-(3-(1-(2,2,2-trifluoroethyl)-1H-indazol-5-yl)pyrazolo[1,5-a]pyrazin-4-yl)cyclohex-3-ene-1-carbonitrile], the pIC50 in assay [1] and in assay [2] was 7.00 to 10.00 in each case.
In the case of `CC(C)(O)Cn1cc(-c2ccc(-c3cnn4ccnc(C5CCC(C#N)CC5)c34)cc2)cn1` (stereo not drawn) [Compound P-0064, (1r,4r)-4-(3-(4-(1-(2-hydroxy-2-methylpropyl)-1H-pyrazol-4-yl)phenyl)pyrazolo[1,5-a]pyrazin-4-yl)cyclohexane-1-carbonitrile], the negative-log IC50 (pIC50) in assay [1] and in assay [2] was 7.00 to 10.00 each time.
Regarding `CCCS(=O)(=O)Nc1ccc2cc(-c3cnn4cccc(C#CC(C)(C)C(N)=O)c34)ccc2c1` [Compound P-0065, 2,2-dimethyl-4-(3-(6-(propylsulfonamido)naphthalen-2-yl)pyrazolo[1,5-a]pyridin-4-yl)but-2-ynamide], the figures for the pIC50 in assay [1] and in assay [2] were 6.00 to 7.00 and 7.00 to 10.00, respectively.
On the same counts, the results for `CC(C)(C#Cc1cccn2ncc(-c3ccc4c(cnn4C(F)F)c3)c12)C(=O)O` [Compound P-0067, 4-(3-(1-(difluoromethyl)-1H-indazol-5-yl)pyrazolo[1,5-a]pyridin-4-yl)-2,2-dimethylbut-3-ynoic acid] are 7.00 to 10.00 and 6.00 to 7.00.
Taken in the same sequence, the figures for `CC(C)(C#Cc1cccn2ncc(-c3ccc4c(cnn4C(F)F)c3)c12)C(N)=O` [Compound P-0068, 4-(3-(1-(difluoromethyl)-1H-indazol-5-yl)pyrazolo[1,5-a]pyridin-4-yl)-2,2-dimethylbut-3-ynamide] were 7.00 to 10.00 and 7.00 to 10.00.
Regarding `CCCS(=O)(=O)Nc1ccc2cc(-c3cnn4ccnc(C#CC(C)(C)C(N)=O)c34)ccc2c1` [Compound P-0069, 2,2-dimethyl-4-(3-(6-(propylsulfonamido)naphthalen-2-yl)pyrazolo[1,5-a]pyrazin-4-yl)but-3-ynamide], the pIC50 in assay [1] and in assay [2] was 7.00 to 10.00 throughout.
For the compound `N#CC1CC=C(c2nccn3ncc(-c4ccc5[nH]ncc5c4)c23)CC1` (stereo not drawn) [Compound P-0070, 4-(3-(1H-indazol-5-yl)pyrazolo[1,5-a]pyrazin-4-yl)cyclohex-3-ene-1-carbonitrile], the negative-log IC50 (pIC50) in assay [1] and in assay [2] was 7.00 to 10.00 each time.
In the case of `Cc1n[nH]c2cc(-c3cnn4ccnc(C5=CCC(C#N)CC5)c34)ccc12` (stereo not drawn) [Compound P-0071, 4-(3-(3-methyl-1H-indazol-6-yl)pyrazolo[1,5-a]pyrazin-4-yl)cyclohex-3-ene-1-carbonitrile], the pIC50 in assay [1] and in assay [2] was 7.00 to 10.00 throughout.
Turning to `N#CC1CC=C(c2nccn3ncc(-c4cc5ccccc5s4)c23)CC1` (stereo not drawn) [Compound P-0073, 4-(3-(benzo[b]thiophen-2-yl)pyrazolo[1,5-a]pyrazin-4-yl)cyclohex-3-ene-1-carbonitrile], the pIC50 in assay [1] and in assay [2] was 7.00 to 10.00 each time.
For `N#CC1CC=C(c2nccn3ncc(-c4ccnc(NC5CCCC5)c4)c23)CC1` (stereo not drawn) [Compound P-0074], the pIC50 in assay [1] and in assay [2] was 6.00 to 7.00 each time.
As to `N#CC1CC=C(c2nccn3ncc(-c4cnn(C5CC5)c4)c23)CC1` (stereo not drawn) [Compound P-0076, 4-(3-(1-cyclopropyl-1H-pyrazol-4-yl)pyrazolo[1,5-a]pyrazin-4-yl)cyclohex-3-ene-1-carbonitrile], the pIC50 in assay [1] and in assay [2] was 6.00 to 7.00 each time.
For the compound `Cc1ncc(-c2cnn3ccnc(C4=CCC(C#N)CC4)c23)s1` (stereo not drawn) [Compound P-0077, 4-(3-(2-methylthiazol-5-yl)pyrazolo[1,5-a]pyrazin-4-yl)cyclohex-3-ene-1-carbonitrile], the pIC50 in assay [1] and in assay [2] was 6.00 to 7.00 in each case.
`N#CC1CC=C(c2nccn3ncc(-c4ccc(OCC(O)CN5CCOCC5)cc4)c23)CC1` (stereo not drawn) [Compound P-0078, 4-(3-(4-(2-hydroxy-3-morpholinopropoxy)phenyl)pyrazolo[1,5-a]pyrazin-4-yl)cyclohex-3-ene-1-carbonitrile]: the pIC50 in assay [1] and in assay [2] was 7.00 to 10.00 throughout.
Turning to `N#CC1CC=C(c2nccn3ncc(-c4ccc(OCC5CCCCO5)cc4)c23)CC1` (stereo not drawn) [Compound P-0079, 4-(3-(4-((tetrahydro-2H-pyran-2-yl)methoxy)phenyl)pyrazolo[1,5-a]pyrazin-4-yl)cyclohex-3-ene-1-carbonitrile], the pIC50 in assay [1] and in assay [2] was 7.00 to 10.00 each time.
As for `CC(=O)Nc1cc(-c2cnn3ccnc(C4=CCC(C#N)CC4)c23)ccn1` (stereo not drawn) [Compound P-0080, N-(4-(4-(4-cyanocyclohex-1-ene-1-yl)pyrazolo[1,5-a]pyrazin-3-yl)pyridin-2-yl)acetamide], the pIC50 in assay [1] and in assay [2] was 7.00 to 10.00 in each case.
For `N#CC1CC=C(c2nccn3ncc(-c4ccc(Cl)c(F)c4)c23)CC1` (stereo not drawn) [Compound P-0083, 4-(3-(4-chloro-3-fluorophenyl)pyrazolo[1,5-a]pyrazin-4-yl)cyclohex-3-ene-1-carbonitrile], the negative-log IC50 (pIC50) in assay [1] and in assay [2] was 6.00 to 7.00 each time.
For the compound `N#CC1CC=C(c2nccn3ncc(-c4ccc(OCC(O)CN5CCCCC5)cc4)c23)CC1` (stereo not drawn) [Compound P-0084, 4-(3-(4-(2-hydroxy-3-(piperidin-1-yl)propoxy)phenyl)pyrazolo[1,5-a]pyrazin-4-yl)cyclohex-3-ene-1-carbonitrile], the negative logarithm of the IC50 (pIC50) in assay [1] and in assay [2] was 7.00 to 10.00 in each case.
`N#CC1CC=C(c2nccn3ncc(-c4ccc(OCCN5CCOCC5)cc4)c23)CC1` (stereo not drawn) [Compound P-0085, 4-(3-(4-(2-morpholinoethoxy)phenyl)pyrazolo [1,5-a]pyrazin-4-yl)cyclohex-3-ene-1-carbonitrile]: the pIC50 in assay [1] and in assay [2] was 7.00 to 10.00 in each case.
Consider `N#CC1CC=C(c2nccn3ncc(-c4ccc(OCCCN5CCCCC5)cc4)c23)CC1` (stereo not drawn) [Compound P-0086, 4-(3-(4-(3-(piperidin-1-yl)propoxy)phenyl)pyrazolo[1,5-a]pyrazin-4-yl)cyclohex-3-ene-1-carbonitrile], for which the pIC50 in assay [1] was 6.00 to 7.00; in assay [2], 7.00 to 10.00.
On the same counts, the results for `COc1ccc(-c2cnn3ccnc(C4=CCC(C#N)CC4)c23)cn1` (stereo not drawn) [Compound P-0087, 4-(3-(6-methoxypyridin-3-yl)pyrazolo[1,5-a]pyrazin-4-yl)cyclohex-3-ene-1-carbonitrile] are 6.00 to 7.00 and 6.00 to 7.00.
Taken in the same sequence, the figures for `COc1ccc(-c2cnn3ccnc(C4=CCC(C#N)CC4)c23)cc1` (stereo not drawn) [Compound P-0088, 4-(3-(4-methoxyphenyl)pyrazolo[1,5-a]pyrazin-4-yl)cyclohex-3-ene-1-carbonitrile] were 7.00 to 10.00 and 7.00 to 10.00.
On the same counts, the results for `N#CC1CC=C(c2nccn3ncc(-c4ccc(F)cc4)c23)CC1` (stereo not drawn) [Compound P-0089, 4-(3-(4-fluorophenyl)pyrazolo[1,5-a]pyrazin-4-yl)cyclohex-3-ene-1-carbonitrile] are 6.00 to 7.00 and 7.00 to 10.00.

The pIC50 is the negative decadic logarithm of the IC50, by convention in mol/L. Higher therefore signals a low IC50.
